Reference: PubChem BioAssay AID2060510 (Molecular Pharmacology Branch, DTP, NCI, 2025)

Test system: 439559-082-T-J2-PDC spheroids viability
Test: Anticancer human tumor 439559-082-T-J2-PDC patient-derived colon adenocarcinoma cell line growth inhibition [GQUAD]
Details: for IC50: curve of first compound; for viability, T/C: stronger effect = lower value
Method in brief: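 Tumor cells were grown as complex spheroids with HUVEC endothelial cells and mesenchymal stem cells as stroma. G-quadruplex stabilizers were combined with targeted agents over half-log dilutions from near the clinical Cmax, or from 10 microM.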

[1] = second compound 0.0316 µM, first compound 0.0316 µM
[2] = second compound 0.0316 µM, first compound 0.1 µM
[3] = second compound 0.0316 µM, first compound 0.316 µM
[4] = second compound 0.0316 µM, first compound 1 µM
[5] = second compound 0.0316 µM, first compound 3.16 µM
[6] = second compound 0.0316 µM, first compound 10 µM
[7] = second compound 0.1 µM, first compound 0.0316 µM
[8] = second compound 0.1 µM, first compound 0.1 µM
[9] = second compound 0.1 µM, first compound 0.316 µM
[10] = second compound 0.1 µM, first compound 1 µM
[11] = second compound 0.1 µM, first compound 3.16 µM
[12] = second compound 0.1 µM, first compound 10 µM
[13] = second compound 0.316 µM, first compound 0.0316 µM
[14] = second compound 0.316 µM, first compound 0.1 µM
[15] = second compound 0.316 µM, first compound 0.316 µM
[16] = second compound 0.316 µM, first compound 1 µM
[17] = second compound 0.316 µM, first compound 3.16 µM
[18] = second compound 0.316 µM, first compound 10 µM
[19] = second compound 1 µM, first compound 0.0316 µM
[20] = second compound 1 µM, first compound 0.1 µM
[21] = second compound 1 µM, first compound 0.316 µM
[22] = second compound 1 µM, first compound 1 µM
[23] = second compound 1 µM, first compound 3.16 µM
[24] = second compound 1 µM, first compound 10 µM
[25] = second compound 3.16 µM, first compound 0.0316 µM
[26] = second compound 3.16 µM, first compound 0.1 µM
[27] = second compound 3.16 µM, first compound 0.316 µM
[28] = second compound 3.16 µM, first compound 1 µM
[29] = second compound 3.16 µM, first compound 3.16 µM
[30] = second compound 3.16 µM, first compound 10 µM
[31] = second compound 10 µM, first compound 0.0316 µM
[32] = second compound 10 µM, first compound 0.1 µM
[33] = second compound 10 µM, first compound 0.316 µM
[34] = second compound 10 µM, first compound 1 µM
[35] = second compound 10 µM, first compound 3.16 µM
[36] = second compound 10 µM, first compound 10 µM
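Further: spheroids exposed to the agents for 7 days before readout.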
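Wherever viability, T/C is given: percent of luminescence signal in DMSO vehicle wells taken as 100% viability.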

For O=c1[nH]cc(F)c(=O)[nH]1 + CN(C)c1ccc(Nc2c3ccc(NC(=O)CCN4CCCC4)cc3nc3cc(NC(=O)CCN4CCCC4)ccc23)cc1, the IC50 (second compound 0.0316 µM) was > 10 µM, the IC50 (second compound 0.1 µM) was > 10 µM and the IC50 (second compound 0.316 µM) was > 10 µM. The IC50 (second compound 1 µM) was > 10 µM, the IC50 (second compound 3.16 µM) was > 10 µM and the IC50 (second compound 10 µM) was > 10 µM. The viability, T/C [1] was 101%, the viability, T/C [2] was 103% and the viability, T/C [3] was 86.6%. For the same compound, the viability, T/C [4] was 81.2%, the viability, T/C [5] was 75.7% and the viability, T/C [6] was 76%. For the same compound, the viability, T/C [7] was 115%, the viability, T/C [8] was 106% and the viability, T/C [9] was 89%. The viability, T/C [10] was 84.1%, the viability, T/C [11] was 77.2% and the viability, T/C [12] was 69.1%. It also gave a viability, T/C [13] of 98.2%, a viability, T/C [14] of 105% and a viability, T/C [15] of 85.9%. The viability, T/C [16] was 80.4%, the viability, T/C [17] was 75% and the viability, T/C [18] was 75.2%. It also gave a viability, T/C [19] of 97.2%, a viability, T/C [20] of 104% and a viability, T/C [21] of 89%. It also gave a viability, T/C [22] of 81.3%, a viability, T/C [23] of 74.6% and a viability, T/C [24] of 81.8%. The viability, T/C [25] was 88.8%, the viability, T/C [26] was 102% and the viability, T/C [27] was 85.5%. It also gave a viability, T/C [28] of 73.9%, a viability, T/C [29] of 73.3% and a viability, T/C [30] of 72.1%. For the same compound, the viability, T/C [31] was 96.4%, the viability, T/C [32] was 93.1% and the viability, T/C [33] was 81.5%. The viability, T/C [34] was 74.6%, the viability, T/C [35] was 70.2% and the viability, T/C [36] was 73.5%.
In the case of COc1ccc([C@@H](O)c2cc(-c3ncnc4cc(N5CCOCC5)ccc34)c(F)cc2Cl)nn1 + CN(C)c1ccc(Nc2c3ccc(NC(=O)CCN4CCCC4)cc3nc3cc(NC(=O)CCN4CCCC4)ccc23)cc1, the IC50 (second compound 0.0316 µM) is reported as > 10 µM, the IC50 (second compound 0.1 µM) is reported as > 10 µM and the IC50 (second compound 0.316 µM) is reported as > 10 µM. The IC50 (second compound 1 µM) was > 10 µM, the IC50 (second compound 3.16 µM) was > 10 µM and the IC50 (second compound 10 µM) was > 10 µM. For the same compound, the viability, T/C [1] was 89.5%, the viability, T/C [2] was 98.3% and the viability, T/C [3] was 89.1%. For the same compound, the viability, T/C [4] was 99.7%, the viability, T/C [5] was 79.5% and the viability, T/C [6] was 83.8%. For the same compound, the viability, T/C [7] was 103%, the viability, T/C [8] was 101% and the viability, T/C [9] was 93.8%. The viability, T/C [10] was 96.1%, the viability, T/C [11] was 88.6% and the viability, T/C [12] was 76.5%. For the same compound, the viability, T/C [13] was 95.7%, the viability, T/C [14] was 92.8% and the viability, T/C [15] was 89.6%. For the same compound, the viability, T/C [16] was 79.8%, the viability, T/C [17] was 84% and the viability, T/C [18] was 86.7%. The viability, T/C [19] was 104%, the viability, T/C [20] was 89.1% and the viability, T/C [21] was 95.7%. For the same compound, the viability, T/C [22] was 91.2%, the viability, T/C [23] was 86% and the viability, T/C [24] was 76.4%. It also gave a viability, T/C [25] of 94.9%, a viability, T/C [26] of 108% and a viability, T/C [27] of 92.6%. It also gave a viability, T/C [28] of 81.1%, a viability, T/C [29] of 76% and a viability, T/C [30] of 79.1%. For the same compound, the viability, T/C [31] was 92.2%, the viability, T/C [32] was 77% and the viability, T/C [33] was 93.7%. The viability, T/C [34] was 71.9%, the viability, T/C [35] was 86.4% and the viability, T/C [36] was 73.4%.
